Literature values, collected in US8541025B2, “Co-crystals and pharmaceutical formulations comprising the same” (Vertex Pharmaceuticals Incorporated, priority 2008, dated 2013).
Where two headings read alike, the source gives them in different places.

Target: hepatitis C virus ("HCV") NS3/4A protease (Hepatitis C virus genotype 1a, UniProt P27958)
Sequence (P27958 1027-1657): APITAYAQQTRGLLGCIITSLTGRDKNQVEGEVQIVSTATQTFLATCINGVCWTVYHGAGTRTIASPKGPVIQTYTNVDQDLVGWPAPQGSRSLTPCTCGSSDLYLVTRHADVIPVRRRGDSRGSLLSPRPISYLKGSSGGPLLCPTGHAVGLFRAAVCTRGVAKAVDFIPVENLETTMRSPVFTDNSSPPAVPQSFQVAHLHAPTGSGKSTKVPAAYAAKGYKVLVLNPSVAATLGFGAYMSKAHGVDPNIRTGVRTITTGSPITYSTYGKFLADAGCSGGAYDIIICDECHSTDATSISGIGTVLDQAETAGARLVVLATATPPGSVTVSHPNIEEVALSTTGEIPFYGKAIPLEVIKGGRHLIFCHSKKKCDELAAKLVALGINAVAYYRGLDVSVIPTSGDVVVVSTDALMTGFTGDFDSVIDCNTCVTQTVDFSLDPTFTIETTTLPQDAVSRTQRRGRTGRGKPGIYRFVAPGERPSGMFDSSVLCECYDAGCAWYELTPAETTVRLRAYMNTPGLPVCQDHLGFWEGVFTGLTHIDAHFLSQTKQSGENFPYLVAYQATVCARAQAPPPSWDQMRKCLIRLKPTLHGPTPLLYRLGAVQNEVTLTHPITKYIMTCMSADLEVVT
Sequence (P27958 1658-1711): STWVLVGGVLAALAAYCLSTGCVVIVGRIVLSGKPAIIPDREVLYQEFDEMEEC

CC[C@H](NC(=O)[C@@H]1[C@H]2CCC[C@H]2CN1C(=O)[C@@H](NC(=O)C(NC(=O)c1cnccn1)C1CCCCC1)C(C)(C)C)C(=O)C(=O)NC1CC1 (some centres unmarked) [VX-950]
Ki (competitive, reversible inhibitor, read-out: steady state binding constant (ki*)): 3 nM | Ki (read-out: Ki): 8 nM
